From PMC12648652, “Combining AlphaFold with Focused Virtual Library Design in the Development of Novel CCR2 and CCR5 Antagonists” (Journal of Chemical Information and Modeling, 2025) come the findings set out here.

The target in this experiment is CC chemokine receptor 2 (CCR2) (Homo sapiens, UniProt P41597).
CC chemokine receptor 2 (CCR2), sequence (P41597 whole entry): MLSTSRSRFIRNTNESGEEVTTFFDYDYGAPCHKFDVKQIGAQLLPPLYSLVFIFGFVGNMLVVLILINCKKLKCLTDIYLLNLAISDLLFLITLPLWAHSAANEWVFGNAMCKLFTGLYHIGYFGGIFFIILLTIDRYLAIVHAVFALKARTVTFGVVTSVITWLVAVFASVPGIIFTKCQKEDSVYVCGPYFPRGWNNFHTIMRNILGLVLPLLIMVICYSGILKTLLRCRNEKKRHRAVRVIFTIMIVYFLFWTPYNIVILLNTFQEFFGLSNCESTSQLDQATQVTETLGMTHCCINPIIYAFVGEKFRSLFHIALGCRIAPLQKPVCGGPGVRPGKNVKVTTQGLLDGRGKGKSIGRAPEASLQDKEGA

Usually Ki stands for a measure of affinity in units of concentration, obtained from inhibition or displacement. In the case of `COc1ccc(S(=O)(=O)Nc2cncc(N3CCOCC3)n2)cc1` [compound 13, LUF8070], the affinity corresponds to a Ki of 3.26 µM.
In turn, `O=S(=O)(Nc1cncc(N2CCOCC2)n1)c1ccc(Cl)c(Cl)c1` [compound 17, LUF8075] displayed an inhibition constant (Ki) of 1.32 µM.
As for `O=S(=O)(Nc1cncc(N2CCCCC2)n1)c1ccc(Cl)c(C(F)(F)F)c1` [compound 20, LUF8100], the figure is 5.95 µM.
